Data: ChEMBL document CHEMBL1201862, “PubChem BioAssay data set” (2004)
Calls of active or inactive are those of the source.

Assays:
[1] = biological target: Peroxisome proliferator-activated receptor gamma/Nuclear receptor coactivator 3 (Homo sapiens, UniProt P37231); assay type: functional;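 further: agonist potency for raising coactivator recruitment to the receptor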
[2] = biological target: Peroxisome proliferator-activated receptor gamma/Nuclear receptor coactivator 1 (Homo sapiens, UniProt P37231); assay type: functional;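 further: agonist potency as compounds enhance coactivator SRC-1 recruitment to PPARgamma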
[3] = biological target: Peroxisome proliferator-activated receptor gamma/Nuclear receptor coactivator 2 (Homo sapiens, UniProt P37231); assay type: functional;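 further: agonist potency for raising coactivator recruitment to the receptor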
[4] = microbe, parasite or virus in culture; assay type: functional; settings: Mycobacterium tuberculosis
[5] = A High Throughput Confirmatory Assay used to Identify Novel Compounds that Inhibit Mycobacterium Tuberculosis in the absence of Glycerol.; assay type: functional
Bcl-2-related protein A1 [6] = biological target: T1, Bcl-2-related protein A1 (Mus musculus, UniProt Q07440); test: Bfl-1 binding inhibitors, SAR follow-up, biochemical, fluorescence polarization (AID 1070)
T1 sequence (Q07440 whole entry): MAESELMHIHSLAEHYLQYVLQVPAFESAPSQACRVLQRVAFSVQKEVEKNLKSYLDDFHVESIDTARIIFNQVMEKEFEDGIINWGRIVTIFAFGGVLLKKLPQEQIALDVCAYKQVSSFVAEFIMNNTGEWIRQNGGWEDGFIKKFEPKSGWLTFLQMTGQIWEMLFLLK

Bcl-2-related protein A1 [7] = biological target: T1, Bcl-2-related protein A1; test: Bfl-1 inhibitors blocking BH3 peptide binding, confirmation, biochemical, TR-FRET, mouse Bfl-1 (AID 621);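 further: TR-FRET binding of GST-Bfl-1 to FITC-labelled Bid peptide via terbium antibody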
[8] = biological target: Glyceraldehyde-3-phosphate dehydrogenase (Homo sapiens, UniProt P04406)
[9] = M. tuberculosis H37Rv growth inhibitors, H37Rv strain (AID 1626); assay type: functional
[10] = M. tuberculosis growth inhibition, HTS (AID 449762); assay type: functional
Vero [11] = test: cytotoxicity of synthesized analogs in Vero cells, SAR follow-up, cytotoxicity control for West Nile virus antiviral project, cell-based, set II (AID 2402); assay type: functional; settings: Chlorocebus sabaeus
[12] = A Cell Based Assay for the Identification of Probe candidate Compounds with Anti- Venezuelan Equine Encephalitis virus. [Related pubchem assays: 2409, 2419, 1621, 2238, 2405, 2024, 2065, 2402, 2414, 1635, 1650, 2244 ]; assay type: functional
Vero [13] = test: cytotoxicity of synthesized analogs in Vero 76, SAR follow-up, cytotoxicity control for West Nile virus antiviral project, Vero 76 cells (AID 2414); assay type: functional; settings: Chlorocebus sabaeus
Bcl-2-related protein A1 [14] = biological target: T1, Bcl-2-related protein A1; test: Bfl-1 inhibitors, primary screen, biochemical, fluorescence polarization, FITC-Bid, mouse (AID 432)

Sequence of Glyceraldehyde-3-phosphate dehydrogenase (P04406 whole entry): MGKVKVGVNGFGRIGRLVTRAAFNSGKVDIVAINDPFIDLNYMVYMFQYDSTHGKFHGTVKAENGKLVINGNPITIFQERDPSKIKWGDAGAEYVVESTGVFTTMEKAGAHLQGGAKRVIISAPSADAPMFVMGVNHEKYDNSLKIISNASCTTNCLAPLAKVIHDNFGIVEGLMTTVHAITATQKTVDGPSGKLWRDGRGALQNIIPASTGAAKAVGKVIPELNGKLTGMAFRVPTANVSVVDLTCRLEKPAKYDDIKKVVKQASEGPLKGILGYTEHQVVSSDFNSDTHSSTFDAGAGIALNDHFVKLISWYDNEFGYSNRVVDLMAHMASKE
Sequence of Peroxisome proliferator-activated receptor gamma/Nuclear receptor coactivator 2 (P37231 whole entry): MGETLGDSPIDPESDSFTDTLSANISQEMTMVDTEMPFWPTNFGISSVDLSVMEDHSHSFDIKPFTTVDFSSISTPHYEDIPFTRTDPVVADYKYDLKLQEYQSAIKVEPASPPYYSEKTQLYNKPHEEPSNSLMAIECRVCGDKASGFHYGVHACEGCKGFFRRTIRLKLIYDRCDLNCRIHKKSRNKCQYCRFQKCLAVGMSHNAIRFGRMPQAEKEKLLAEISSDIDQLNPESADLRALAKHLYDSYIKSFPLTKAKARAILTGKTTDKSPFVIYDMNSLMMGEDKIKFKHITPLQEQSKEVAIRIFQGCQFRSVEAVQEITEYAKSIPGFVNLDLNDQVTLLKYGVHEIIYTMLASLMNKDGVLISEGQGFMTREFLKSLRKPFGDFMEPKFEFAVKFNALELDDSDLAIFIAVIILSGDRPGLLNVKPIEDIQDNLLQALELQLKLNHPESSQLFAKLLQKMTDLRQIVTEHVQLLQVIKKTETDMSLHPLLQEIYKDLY
Sequence of Peroxisome proliferator-activated receptor gamma/Nuclear receptor coactivator 2 (Q15596 whole entry, further chain): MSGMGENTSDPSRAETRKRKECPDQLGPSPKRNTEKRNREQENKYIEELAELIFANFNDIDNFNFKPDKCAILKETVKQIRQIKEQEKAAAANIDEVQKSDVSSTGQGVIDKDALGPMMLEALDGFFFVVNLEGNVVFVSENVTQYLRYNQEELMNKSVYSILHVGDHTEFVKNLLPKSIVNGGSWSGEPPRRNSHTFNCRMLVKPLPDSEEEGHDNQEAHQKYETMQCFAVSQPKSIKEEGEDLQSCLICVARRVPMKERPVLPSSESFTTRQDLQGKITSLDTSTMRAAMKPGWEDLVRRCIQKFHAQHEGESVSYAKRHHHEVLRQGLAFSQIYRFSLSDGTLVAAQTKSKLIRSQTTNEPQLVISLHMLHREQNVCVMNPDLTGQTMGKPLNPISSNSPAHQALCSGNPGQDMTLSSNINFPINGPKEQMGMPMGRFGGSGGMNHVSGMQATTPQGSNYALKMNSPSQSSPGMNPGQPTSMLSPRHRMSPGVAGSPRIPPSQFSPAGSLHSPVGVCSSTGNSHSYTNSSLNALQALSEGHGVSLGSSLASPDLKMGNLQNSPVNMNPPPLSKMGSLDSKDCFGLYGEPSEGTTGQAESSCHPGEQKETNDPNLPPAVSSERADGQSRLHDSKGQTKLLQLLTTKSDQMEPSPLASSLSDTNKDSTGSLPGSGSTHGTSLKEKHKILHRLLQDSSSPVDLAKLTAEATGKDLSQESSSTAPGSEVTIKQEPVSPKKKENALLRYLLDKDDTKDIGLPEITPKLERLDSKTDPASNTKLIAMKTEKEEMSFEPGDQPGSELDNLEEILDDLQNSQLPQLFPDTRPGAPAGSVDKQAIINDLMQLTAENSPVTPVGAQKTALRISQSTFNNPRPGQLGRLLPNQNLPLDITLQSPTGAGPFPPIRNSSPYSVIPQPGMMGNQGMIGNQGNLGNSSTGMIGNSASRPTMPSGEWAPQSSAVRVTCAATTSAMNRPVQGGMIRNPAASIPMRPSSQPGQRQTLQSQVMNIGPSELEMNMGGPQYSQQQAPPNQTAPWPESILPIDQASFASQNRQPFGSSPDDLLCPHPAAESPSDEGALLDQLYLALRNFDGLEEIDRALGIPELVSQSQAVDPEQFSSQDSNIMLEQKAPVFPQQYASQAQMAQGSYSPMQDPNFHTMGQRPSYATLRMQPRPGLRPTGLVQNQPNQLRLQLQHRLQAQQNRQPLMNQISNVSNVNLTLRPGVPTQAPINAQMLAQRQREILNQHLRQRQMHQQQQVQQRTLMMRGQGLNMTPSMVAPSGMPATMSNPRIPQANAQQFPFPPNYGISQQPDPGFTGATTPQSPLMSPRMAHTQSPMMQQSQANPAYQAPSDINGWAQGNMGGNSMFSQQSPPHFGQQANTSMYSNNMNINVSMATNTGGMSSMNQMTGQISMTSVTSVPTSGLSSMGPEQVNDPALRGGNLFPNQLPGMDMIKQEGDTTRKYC
Sequence of Peroxisome proliferator-activated receptor gamma/Nuclear receptor coactivator 3 (P37231 whole entry): as the sequence (P37231 whole entry) above
Sequence of Peroxisome proliferator-activated receptor gamma/Nuclear receptor coactivator 3 (Q9Y6Q9 whole entry, further chain): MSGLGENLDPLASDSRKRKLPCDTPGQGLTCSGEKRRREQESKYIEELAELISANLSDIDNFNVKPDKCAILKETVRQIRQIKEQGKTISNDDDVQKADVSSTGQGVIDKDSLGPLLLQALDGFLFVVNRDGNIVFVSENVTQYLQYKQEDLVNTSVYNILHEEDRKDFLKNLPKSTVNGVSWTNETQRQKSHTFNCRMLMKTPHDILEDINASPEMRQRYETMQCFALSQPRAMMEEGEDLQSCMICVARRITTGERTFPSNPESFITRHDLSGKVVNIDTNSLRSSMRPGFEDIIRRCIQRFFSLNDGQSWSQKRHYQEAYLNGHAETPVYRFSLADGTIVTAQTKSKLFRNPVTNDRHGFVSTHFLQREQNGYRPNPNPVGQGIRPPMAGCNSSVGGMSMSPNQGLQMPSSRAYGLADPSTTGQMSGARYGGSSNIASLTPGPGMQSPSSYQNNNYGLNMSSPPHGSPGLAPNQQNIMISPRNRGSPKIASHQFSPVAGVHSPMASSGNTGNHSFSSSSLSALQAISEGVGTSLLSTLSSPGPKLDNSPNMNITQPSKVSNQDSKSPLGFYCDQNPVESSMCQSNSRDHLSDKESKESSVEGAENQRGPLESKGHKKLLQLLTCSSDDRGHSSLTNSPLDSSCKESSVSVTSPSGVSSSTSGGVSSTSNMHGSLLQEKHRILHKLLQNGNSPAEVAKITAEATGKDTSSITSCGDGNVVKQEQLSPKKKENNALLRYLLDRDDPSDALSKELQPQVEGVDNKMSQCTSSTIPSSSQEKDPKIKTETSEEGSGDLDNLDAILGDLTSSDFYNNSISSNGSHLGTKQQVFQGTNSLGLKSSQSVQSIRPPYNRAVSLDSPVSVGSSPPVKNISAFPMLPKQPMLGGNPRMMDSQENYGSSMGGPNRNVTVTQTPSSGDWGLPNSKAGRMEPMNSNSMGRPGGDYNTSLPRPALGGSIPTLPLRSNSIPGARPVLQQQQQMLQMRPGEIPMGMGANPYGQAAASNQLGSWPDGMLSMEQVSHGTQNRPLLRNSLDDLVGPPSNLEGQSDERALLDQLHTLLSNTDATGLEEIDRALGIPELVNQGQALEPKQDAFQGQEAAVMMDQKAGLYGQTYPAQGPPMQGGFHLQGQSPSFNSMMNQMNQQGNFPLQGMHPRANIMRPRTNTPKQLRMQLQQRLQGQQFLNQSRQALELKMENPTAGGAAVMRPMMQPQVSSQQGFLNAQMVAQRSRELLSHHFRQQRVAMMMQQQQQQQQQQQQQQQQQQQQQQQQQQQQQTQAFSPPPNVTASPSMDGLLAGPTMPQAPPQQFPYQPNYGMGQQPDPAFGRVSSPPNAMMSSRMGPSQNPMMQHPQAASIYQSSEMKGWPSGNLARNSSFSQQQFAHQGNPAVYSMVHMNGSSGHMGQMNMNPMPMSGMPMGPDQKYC

With `O=C(COc1ccccc1-c1ccccc1)NCc1ccco1` the EC50 [1] was > 79.4 µM (not active), the EC50 [2] was > 79.4 µM (not active) and the EC50 [3] was > 79.4 µM (not active).
In the case of `Cc1ccc(-c2noc(=O)n2CC(=O)c2ccc(Cl)cc2)cc1`, the CC50 [4] is reported as > 40 µM (active) and the IC50 [5] is reported as > 50 µM (active).
In the case of `O=C1C(Cl)=C(Nc2ccc(F)cc2)C(=O)N1c1ccc(Cl)c(Cl)c1`, the IC50 (Bcl-2-related protein A1 [6]) is reported as > 100 µM (not active), the IC50 (Bcl-2-related protein A1 [7]) is reported as 96.5 µM (active) and the IC50 [8] is reported as > 100 µM (not active).
For `O=C(CSC1=NCCS1)Nc1ccc2ccccc2c1`, the IC50 [9] was > 100 µM (active).
For `CN1CCN(c2ccc(C(=O)c3cn(-c4ccc(F)c(Cl)c4)nn3)cc2)CC1`, the IC50 [10] was > 100 µM (active) and the CC50 [4] was 15 µM (active).
For `COc1cccc2c(=O)n(-c3ccccc3)c(SCC(=O)Nc3ccc4c(c3)CCC4)nc12`, the CC50 (Vero [11]) was > 200 µM (active), the IC50 [12] was < 260 nM (active) and the CC50 (Vero [13]) was < 260 nM (active).
With `C1=C(c2ccc(-c3ccccc3)cc2)Nc2ncnn2C1c1ccco1` (stereo unspecified) the IC50 (Bcl-2-related protein A1 [7]) was > 100 µM (not active) and the IC50 (Bcl-2-related protein A1 [14]) was > 100 µM (not active).
